# Reference: ChEMBL document CHEMBL1201862, “PubChem BioAssay data set” (2004)
# Active and inactive are the calls of the source.
# How the values were obtained:
# Cytochrome P450 3A4 = Cytochrome P450 3A4 (Homo sapiens, UniProt P08684); conditions: Potency;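 also: confirmatory qHTS run detecting inhibitors and substrates of CYP3A4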
# [1] = target: Glyceraldehyde-3-phosphate dehydrogenase (Homo sapiens, UniProt P04406)
# [2] = target: Eukaryotic translation initiation factor 4E (Mus musculus, UniProt P63073); test: eIF4E–eIF4G protein interaction inhibitors, dose response, biochemical, TR-FRET (AID 855); assay type: functional;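 also: potency for disrupting eIF4E binding to eIF4GI seen as loss of FRET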
# Chain of Eukaryotic translation initiation factor 4E (P63073 whole entry): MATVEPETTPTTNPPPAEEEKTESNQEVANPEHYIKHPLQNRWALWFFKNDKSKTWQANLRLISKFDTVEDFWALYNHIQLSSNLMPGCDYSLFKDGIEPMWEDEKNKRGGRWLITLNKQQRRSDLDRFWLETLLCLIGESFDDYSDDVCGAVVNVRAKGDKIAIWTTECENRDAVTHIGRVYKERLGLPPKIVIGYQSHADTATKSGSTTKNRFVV
# Leucine aminopeptidase = target: T1, Leucine aminopeptidase (Plasmodium falciparum 3D7, UniProt Q8IL11); test: P. falciparum M17LAP inhibitors, primary screen, biochemical, fluorogenic H-Leu-NHMec substrate, 1536-well (AID 1619); assay type: functional
# T1 sequence (Q8IL11 whole entry): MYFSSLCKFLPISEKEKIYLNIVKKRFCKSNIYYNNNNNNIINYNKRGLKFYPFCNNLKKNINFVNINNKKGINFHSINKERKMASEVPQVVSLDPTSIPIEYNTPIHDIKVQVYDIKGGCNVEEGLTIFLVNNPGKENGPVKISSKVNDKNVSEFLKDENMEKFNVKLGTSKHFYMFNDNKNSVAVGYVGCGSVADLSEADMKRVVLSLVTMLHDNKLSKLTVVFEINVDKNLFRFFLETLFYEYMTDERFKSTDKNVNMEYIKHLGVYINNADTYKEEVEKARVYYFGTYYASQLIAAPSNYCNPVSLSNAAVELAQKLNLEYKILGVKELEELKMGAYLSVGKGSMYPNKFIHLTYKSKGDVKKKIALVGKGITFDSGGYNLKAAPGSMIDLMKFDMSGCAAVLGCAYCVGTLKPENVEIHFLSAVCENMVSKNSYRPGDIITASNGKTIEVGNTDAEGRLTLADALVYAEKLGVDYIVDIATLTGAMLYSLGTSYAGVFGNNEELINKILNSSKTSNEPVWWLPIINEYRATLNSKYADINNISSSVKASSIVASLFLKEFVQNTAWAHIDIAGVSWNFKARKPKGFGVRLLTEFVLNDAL
# [3] = inhibitors of clade B AD8 Env fusion, dose response, cell-based, cherry-pick (AID 652062); assay type: functional;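 also: luciferase signal from cell-cell fusion driven by HIV-1 clade B AD8 Env; potency is for inhibitors of fusion seen as a drop in luminescence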
# [4] = ZM109 Env clade C HIV-1 fusion inhibitors, dose response, HeLa effector, CEM target cells, luciferase, cherry-pick (AID 652058); assay type: functional, cell-based
# [5] = inhibitors of HIV Env-driven cell fusion, dose response, cherry-pick (AID 652057); assay type: functional, cell-based
# [6] = off-target signal loss in HeLa-CEM21 co-culture – HeLa F-luc CTL cells, cherry-picked, counter-screen for HIV-1 Env fusion inhibitor project, dose response (AID 652040); assay type: functional, cell-based;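 also: potency for signal decrease marking cytotoxic or nonspecific inhibition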
# [7] = LGR2 antagonists, dose response, cell-based, HEK293, CRE-luciferase reporter, cherry pick, set 2 (AID 743343); assay type: functional;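 also: transfected cells were stimulated with diluted bursicon conditioned medium after compound addition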
# [8] = MC4R antagonists, dose response, counter-screen for LGR2 antagonist project, cell-based, plate reader, cherry pick (AID 743444); assay type: functional;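 also: transfected HEK 293 cells stimulated with alpha-MSH peptide; potency of inhibitors of the alpha-MSH evoked signal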
# [9] = A549 cell cytotoxicity, dose response, cytotoxicity control, plate reader, cherry-pick, antagonist series (AID 743412); assay type: functional, cell-based
# [10] = HEK293 cell cytotoxicity, dose response, cytotoxicity control, plate reader, cherry-picked samples (AID 743446); assay type: functional, cell-based
# Fatty acid synthase [11] = target: T2, Fatty acid synthase (Homo sapiens, UniProt P49327); test: FAS thioesterase domain inhibitors, dose response, biochemical, kinetic fluorescence intensity (AID 624326); assay type: functional;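 also: rate of fluorescence rise from hydrolysis of a fluorogenic O-methyl fluorescein ester substrate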
# T2 sequence (P49327 whole entry, the tested form may be a part): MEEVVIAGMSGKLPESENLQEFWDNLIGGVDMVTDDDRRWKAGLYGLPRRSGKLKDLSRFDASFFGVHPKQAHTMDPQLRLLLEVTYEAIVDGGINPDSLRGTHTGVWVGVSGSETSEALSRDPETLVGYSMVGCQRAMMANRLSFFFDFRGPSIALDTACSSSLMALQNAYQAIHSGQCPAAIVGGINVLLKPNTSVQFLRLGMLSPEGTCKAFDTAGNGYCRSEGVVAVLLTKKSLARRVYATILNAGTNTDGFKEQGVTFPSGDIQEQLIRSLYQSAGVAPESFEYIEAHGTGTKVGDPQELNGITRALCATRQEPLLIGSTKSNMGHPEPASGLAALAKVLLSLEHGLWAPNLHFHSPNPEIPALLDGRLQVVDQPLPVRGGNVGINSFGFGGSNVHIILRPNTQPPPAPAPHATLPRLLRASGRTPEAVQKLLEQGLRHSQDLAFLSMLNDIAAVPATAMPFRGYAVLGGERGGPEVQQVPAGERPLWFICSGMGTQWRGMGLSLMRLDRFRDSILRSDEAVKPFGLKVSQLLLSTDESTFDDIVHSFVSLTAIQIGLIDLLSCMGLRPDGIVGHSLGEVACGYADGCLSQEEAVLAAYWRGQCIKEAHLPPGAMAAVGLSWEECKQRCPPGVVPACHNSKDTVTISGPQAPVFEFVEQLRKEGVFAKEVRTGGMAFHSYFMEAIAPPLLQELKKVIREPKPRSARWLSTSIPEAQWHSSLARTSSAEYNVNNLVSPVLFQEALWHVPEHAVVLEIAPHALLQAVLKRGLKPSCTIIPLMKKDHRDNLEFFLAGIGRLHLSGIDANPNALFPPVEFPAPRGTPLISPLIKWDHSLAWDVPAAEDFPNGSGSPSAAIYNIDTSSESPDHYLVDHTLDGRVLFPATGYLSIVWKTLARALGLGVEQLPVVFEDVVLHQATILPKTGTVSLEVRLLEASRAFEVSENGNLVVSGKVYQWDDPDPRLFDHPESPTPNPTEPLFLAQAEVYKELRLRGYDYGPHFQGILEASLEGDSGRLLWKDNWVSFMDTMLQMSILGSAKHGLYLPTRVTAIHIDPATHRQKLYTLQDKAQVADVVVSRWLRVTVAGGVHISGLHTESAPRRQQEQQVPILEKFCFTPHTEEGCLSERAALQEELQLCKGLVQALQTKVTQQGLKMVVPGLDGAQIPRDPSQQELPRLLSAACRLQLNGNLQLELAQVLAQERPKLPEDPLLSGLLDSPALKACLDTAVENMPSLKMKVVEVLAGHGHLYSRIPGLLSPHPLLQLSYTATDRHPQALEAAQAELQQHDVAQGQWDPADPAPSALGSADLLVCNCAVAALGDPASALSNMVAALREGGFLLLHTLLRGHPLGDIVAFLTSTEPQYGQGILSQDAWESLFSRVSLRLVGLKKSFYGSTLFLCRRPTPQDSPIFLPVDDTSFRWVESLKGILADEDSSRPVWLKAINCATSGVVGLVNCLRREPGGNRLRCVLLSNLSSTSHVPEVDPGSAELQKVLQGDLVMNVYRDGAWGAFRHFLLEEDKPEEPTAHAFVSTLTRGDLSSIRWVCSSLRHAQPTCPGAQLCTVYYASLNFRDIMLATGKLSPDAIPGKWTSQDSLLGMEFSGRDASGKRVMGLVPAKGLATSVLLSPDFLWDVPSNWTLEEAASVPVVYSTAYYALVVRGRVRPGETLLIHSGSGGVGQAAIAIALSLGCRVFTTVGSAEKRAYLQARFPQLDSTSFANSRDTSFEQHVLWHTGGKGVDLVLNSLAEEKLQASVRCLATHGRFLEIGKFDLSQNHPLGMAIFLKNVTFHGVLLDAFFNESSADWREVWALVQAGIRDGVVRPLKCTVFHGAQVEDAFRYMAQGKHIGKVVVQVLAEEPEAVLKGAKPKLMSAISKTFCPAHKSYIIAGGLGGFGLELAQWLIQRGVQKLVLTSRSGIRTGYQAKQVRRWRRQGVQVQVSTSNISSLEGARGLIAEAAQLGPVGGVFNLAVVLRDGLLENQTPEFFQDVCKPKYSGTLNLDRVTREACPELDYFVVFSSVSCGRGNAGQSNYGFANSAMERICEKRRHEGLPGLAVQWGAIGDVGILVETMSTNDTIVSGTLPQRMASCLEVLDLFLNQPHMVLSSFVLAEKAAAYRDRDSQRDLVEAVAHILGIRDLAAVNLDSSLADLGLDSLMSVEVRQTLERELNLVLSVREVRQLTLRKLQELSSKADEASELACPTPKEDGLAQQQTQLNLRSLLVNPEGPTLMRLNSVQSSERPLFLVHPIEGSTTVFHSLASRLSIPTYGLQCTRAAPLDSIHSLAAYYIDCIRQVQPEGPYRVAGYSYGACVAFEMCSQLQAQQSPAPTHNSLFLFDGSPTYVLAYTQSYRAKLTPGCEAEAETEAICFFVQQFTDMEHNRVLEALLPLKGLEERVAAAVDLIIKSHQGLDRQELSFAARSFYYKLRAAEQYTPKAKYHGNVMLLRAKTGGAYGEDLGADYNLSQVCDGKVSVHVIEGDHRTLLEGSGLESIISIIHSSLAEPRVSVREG
# [12] = target: T3, Calpain-2 catalytic subunit (Sus scrofa, UniProt P43367); test: pig calpain II inhibitor potency, dose response, biochemical, fluorogenic peptide substrate (AID 1420); assay type: functional
# T3 sequence (P43367 whole entry): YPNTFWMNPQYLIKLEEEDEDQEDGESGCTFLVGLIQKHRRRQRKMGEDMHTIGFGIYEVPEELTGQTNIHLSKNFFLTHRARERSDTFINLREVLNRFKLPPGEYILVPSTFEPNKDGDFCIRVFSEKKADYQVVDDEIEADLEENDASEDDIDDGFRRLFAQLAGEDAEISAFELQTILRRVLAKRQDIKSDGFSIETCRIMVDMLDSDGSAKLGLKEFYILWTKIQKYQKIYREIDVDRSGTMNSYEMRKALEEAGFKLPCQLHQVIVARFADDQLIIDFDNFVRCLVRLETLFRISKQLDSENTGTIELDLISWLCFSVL
# [13] = system: Streptococcus sp. 'group A'; test: growth inhibition of control SK(-) GAS strain, dose response, counter-screen for streptokinase expression inhibitor project, luminescence, kanamycin, BacTiterGlo, confirmation (AID 1900); assay type: functional, organism-based
# [14] = microbe, parasite or virus in culture; assay type: functional; conditions: Mycobacterium tuberculosis
# Streptococcus = test: Group A Streptococcus viability loss, dose response, counter-screen for streptokinase expression inhibitor project, luminescence, BacTiterGlo (AID 1915); assay type: functional, organism-based;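 also: potency for reduction of bacterial viability or growth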
# Streptokinase A = target: T4, Streptokinase A (Streptococcus pyogenes serotype M1, UniProt P10520); test: S. pyogenes streptokinase expression inhibitors, potency, dose response, plasminogen activation absorbance, OD405 (AID 1914); assay type: functional, Streptococcus pyogenes M1 GAS;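 also: secreted streptokinase activity via plasminogen activation per viability signal from cell pellet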
# T4 sequence (P10520 whole entry): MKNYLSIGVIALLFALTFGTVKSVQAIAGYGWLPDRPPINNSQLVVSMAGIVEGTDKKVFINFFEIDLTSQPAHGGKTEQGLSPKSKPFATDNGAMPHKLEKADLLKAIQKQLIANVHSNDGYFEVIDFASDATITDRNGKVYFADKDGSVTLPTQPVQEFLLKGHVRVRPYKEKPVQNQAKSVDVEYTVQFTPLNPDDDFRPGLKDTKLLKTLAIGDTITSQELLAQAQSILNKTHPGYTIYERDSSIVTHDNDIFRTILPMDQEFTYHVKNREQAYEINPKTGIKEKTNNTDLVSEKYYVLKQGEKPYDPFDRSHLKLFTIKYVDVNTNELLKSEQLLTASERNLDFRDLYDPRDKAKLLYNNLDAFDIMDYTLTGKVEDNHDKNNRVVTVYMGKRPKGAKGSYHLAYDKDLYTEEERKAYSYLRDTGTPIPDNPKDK
# Fatty acid synthase [15] = target: T2, Fatty acid synthase; test: FAS thioesterase domain inhibitors, dose response, biochemical, endpoint fluorescence intensity, uHTS hits (AID 624327); assay type: functional;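 also: fluorescence from hydrolysis of an O-methyl fluorescein acyl ester substrate by the enzyme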
# [16] = target: DNA dC->dU-editing enzyme APOBEC-3A (Homo sapiens, UniProt P31941); test: Dose Response confirmation of small molecule APOBEC3A DNA Deaminase Inhibitors via a fluorescence-based single-stranded DNA deaminase assay. [Related pubchem assays (depositor defined):AID493011, AID493024]; assay type: functional
# Chain of DNA dC->dU-editing enzyme APOBEC-3A (P31941 whole entry): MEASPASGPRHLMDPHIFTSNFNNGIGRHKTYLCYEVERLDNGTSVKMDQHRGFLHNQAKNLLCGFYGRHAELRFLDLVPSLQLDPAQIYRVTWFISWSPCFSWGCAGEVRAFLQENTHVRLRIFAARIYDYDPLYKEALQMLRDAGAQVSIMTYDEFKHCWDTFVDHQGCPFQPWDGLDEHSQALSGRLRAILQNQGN
# [17] = target: DNA dC->dU-editing enzyme APOBEC-3G (Homo sapiens, UniProt Q9HC16); assay type: functional;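 also: Dose-response counterscreen measuring inhibition of APOBEC3G DNA deaminase activity, run while confirming APOBEC3A inhibitors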
# Chain of DNA dC->dU-editing enzyme APOBEC-3G (Q9HC16 whole entry): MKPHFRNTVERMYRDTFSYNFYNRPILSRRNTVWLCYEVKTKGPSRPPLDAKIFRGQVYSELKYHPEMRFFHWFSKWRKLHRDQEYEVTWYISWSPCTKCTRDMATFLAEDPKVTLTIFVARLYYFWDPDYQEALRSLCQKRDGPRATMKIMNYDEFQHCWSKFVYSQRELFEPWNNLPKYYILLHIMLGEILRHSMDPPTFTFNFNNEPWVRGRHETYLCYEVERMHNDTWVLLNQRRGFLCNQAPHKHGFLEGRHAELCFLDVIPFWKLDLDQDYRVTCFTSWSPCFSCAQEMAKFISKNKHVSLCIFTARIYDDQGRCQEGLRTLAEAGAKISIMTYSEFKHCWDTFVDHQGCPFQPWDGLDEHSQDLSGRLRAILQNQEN
# HEK293 [18] = test: NOD2 signaling inhibitors in MDP-stimulated cells, cell-based, uHTS, luminescence (AID 2001); assay type: functional; conditions: Homo sapiens
# HEK293 [19] = test: cells; assay type: functional, cell-based; conditions: Homo sapiens
# HEK293 [20] = test: NOD1 signaling inhibitors, primary screen, cell-based, luminescence, uHTS (AID 1578); assay type: functional; conditions: Homo sapiens
# [21] = control 3'UTR Renilla luciferase suppression, dose response, counter-screen for Shn3 inhibitor project, cell-based, Clone20-Shn3RL, cherry-picked (AID 624133); assay type: functional
# [22] = Shn3 3'UTR reporter inhibitors, dose response, cell-based, Clone20 osteoblasts, firefly luciferase, cherry-picked (AID 624132); assay type: functional;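 also: firefly luciferase luminescence from reporter carrying the Shn3 3'UTR in osteoblasts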
# [23] = HepG2 cell cytotoxicity, dose response, cytotoxicity control for Shn3 inhibitor project, CellTiter-Glo, cherry-picked (AID 624134); assay type: functional, cell-based
# HEK293 [24] = test: cells; assay type: functional, cell-based; conditions: Homo sapiens; remark: listed apart in the source
# [25] = target: T5, Carboxy-terminal domain RNA polymerase II polypeptide A small phosphatase 1 (Homo sapiens, UniProt Q9GZU7); test: inhibitors of CTDSP1, concentration-response testing, biochemical assay, absorbance-based, actives from ultra-high-throughput screening (AID 540297); assay type: functional
# T5 sequence (Q9GZU7 whole entry): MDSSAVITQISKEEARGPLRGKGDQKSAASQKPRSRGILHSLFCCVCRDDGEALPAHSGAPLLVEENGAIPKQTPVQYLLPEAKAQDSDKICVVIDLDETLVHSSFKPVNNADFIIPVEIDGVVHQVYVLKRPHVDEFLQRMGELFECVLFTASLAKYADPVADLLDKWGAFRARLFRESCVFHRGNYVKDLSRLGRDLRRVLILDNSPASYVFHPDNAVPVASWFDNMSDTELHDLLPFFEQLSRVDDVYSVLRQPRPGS
# Chain of Cytochrome P450 3A4 (P08684 whole entry): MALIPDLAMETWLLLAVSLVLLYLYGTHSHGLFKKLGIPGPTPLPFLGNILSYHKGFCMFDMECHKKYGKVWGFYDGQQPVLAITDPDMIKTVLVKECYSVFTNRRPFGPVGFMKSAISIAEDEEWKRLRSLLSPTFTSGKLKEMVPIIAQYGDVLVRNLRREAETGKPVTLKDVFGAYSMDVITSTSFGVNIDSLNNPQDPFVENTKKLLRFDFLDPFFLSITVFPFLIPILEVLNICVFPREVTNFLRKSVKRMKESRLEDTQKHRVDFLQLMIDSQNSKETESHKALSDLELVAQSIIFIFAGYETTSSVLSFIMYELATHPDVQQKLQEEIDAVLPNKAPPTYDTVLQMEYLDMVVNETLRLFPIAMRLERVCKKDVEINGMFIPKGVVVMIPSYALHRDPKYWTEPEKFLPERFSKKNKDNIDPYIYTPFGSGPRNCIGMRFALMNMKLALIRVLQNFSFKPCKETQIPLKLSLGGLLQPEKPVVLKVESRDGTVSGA
# Chain of Glyceraldehyde-3-phosphate dehydrogenase (P04406 whole entry): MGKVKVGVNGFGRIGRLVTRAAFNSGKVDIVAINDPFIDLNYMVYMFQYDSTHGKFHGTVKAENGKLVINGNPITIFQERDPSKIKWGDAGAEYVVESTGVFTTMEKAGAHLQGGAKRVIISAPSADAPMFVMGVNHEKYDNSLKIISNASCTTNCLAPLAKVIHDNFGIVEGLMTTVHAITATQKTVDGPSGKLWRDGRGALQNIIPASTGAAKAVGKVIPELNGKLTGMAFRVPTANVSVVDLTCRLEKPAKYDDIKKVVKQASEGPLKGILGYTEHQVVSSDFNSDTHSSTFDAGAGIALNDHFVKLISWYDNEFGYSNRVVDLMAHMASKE
compound,measurement,setting,value
"COC(=O)CC[C@@H](C)[C@H]1CC[C@H]2[C@@H]3[C@H](O)C[C@@H]4C[C@H](O)CC[C@]4(C)[C@H]3C[C@H](O)[C@]12C [CHOLIC ACID, METHYL ESTER]",AC50,Cytochrome P450 3A4,31.6 µM (inconclusive)
O=C(CCc1ccc(O)cc1)c1c(O)cc(O)cc1O[C@H]1OC(CO)C(O)C(O)C1O (stereo partly drawn),AC50,Cytochrome P450 3A4,39.8 µM (inconclusive)
Cc1nnc(SCC(=O)Nc2ccc(O)c(C(=O)O)c2)s1,IC50,[1],> 100 µM (not active)
CC(C)(C)NC(=O)C(=O)NN=C1CCCCCCC1,IC50,[2],50 µM (inactive)
O=C(O)/C=C/C(=O)Nc1ccccc1C(=O)OCC(=O)c1ccc2c(c1)OCCO2,IC50,Leucine aminopeptidase,36.9 µM (active)
COc1cc(NC2c3ccccc3C(=O)N2Cc2ccccc2)cc(OC)c1OC (stereo not drawn),AC50,[3],7.97 µM (active)
same,AC50,[4],13.1 µM (active)
same,AC50,[5],8.41 µM (active)
same,AC50,[6],9.63 µM (active)
c1ccc2c(Cc3c[nH]c4ccccc34)c[nH]c2c1 [ARUNDINE],AC50,Cytochrome P450 3A4,39.8 µM (inconclusive)
O=C(O)C1CC=CCC1C(=O)Nc1ccccc1Cl (stereo not drawn),IC50,Leucine aminopeptidase,12 µM (active)
Oc1nc2ccccc2n1C1CCN(C(c2ccccc2OC(F)(F)F)c2nnnn2Cc2ccccc2)CC1 (stereo not drawn),AC50,[7],20.5 µM (active)
same,AC50,[8],22.9 µM (active)
same,AC50,[9],18.9 µM (active)
same,AC50,[10],17.6 µM (active)
CC(C)C[C@H](NC(=O)c1[nH]cnc1C(=O)NC1CCN(C(=O)OC(C)(C)C)CC1)C(=O)OCc1ccccc1,IC50,Fatty acid synthase [11],6.28 µM (active)
same,IC50,[12],4.9 µM (not active)
same,EC50,[13],8.37 µM (active)
same,CC50,[14],> 40 µM (active)
same,EC50,Streptococcus,12.3 µM (active)
same,EC50,Streptokinase A,> 150 µM (not active)
same,IC50,Fatty acid synthase [15],8.64 µM (active)
CCOc1ccc(NC(=O)c2cc3ccccc3cc2O)cc1,IC50,[16],12.9 µM (active)
same,IC50,[17],47.5 µM (active)
CCCn1c(-c2ccc(F)cc2)nc2c(NCCCCN(C)C)nc(C)nc21,AC50,Cytochrome P450 3A4,25.1 µM (inconclusive)
CCCOC(=O)c1[nH]c2c(c1C)C(=O)CC(c1cc(OC)c(OC)c(OC)c1)C2 (stereo not drawn),IC50,HEK293 [18],4.9 µM (active)
same,IC50,HEK293 [19],6.21 µM (active)
same,EC50,HEK293 [20],2.78 µM (active)
same,AC50,[21],6.82 µM (active)
same,AC50,[22],1.92 µM (active)
same,AC50,[23],52.9 µM (active)
same,IC50,HEK293 [24],16.4 µM (active)
Cc1ccc(CCCOC(=O)C[N+]2(C)CCCCC2)cc1,IC50,[16],2.57 µM (active)
same,IC50,[17],2.58 µM (active)
O=C1C2CC=CCC2C(=O)N1c1nc(CCc2ccccc2)n[nH]1 (stereo not drawn),IC50,[1],> 100 µM (not active)
CCc1ccc(C(=O)CSc2nnc[nH]2)cc1,IC50,Leucine aminopeptidase,16.7 µM (active)
same,IC50,[2],> 64 µM (inactive)
COc1cc(NC2c3ccccc3C(=O)N2Cc2ccc3c(c2)OCO3)cc(OC)c1OC (stereo not drawn),AC50,[3],10.1 µM (active)
same,AC50,[4],5.79 µM (active)
same,AC50,[5],6.77 µM (active)
same,AC50,[6],14.7 µM (active)
CCCc1nc(SCC(=O)Nc2nnc(SCC)s2)c2c(=O)n(C)c(=O)n(C)c2n1,IC50,HEK293 [18],4.78 µM (active)
same,IC50,HEK293 [19],7.04 µM (active)
same,EC50,HEK293 [20],> 20 µM (inactive)
same,IC50,HEK293 [24],> 20 µM (inactive)
CCn1cc(C(=O)OCC(=O)c2cc(C)n(-c3ccc(OC(F)F)cc3)c2C)c(=O)c2ccc(C)nc21,IC50,[2],> 64 µM (inactive)
CCC1=C2CC[C@H]3C(=O)NC(=O)[C@H]3[C@H]2[C@@]2(C)/C(=N/CC3CC3)OC(=O)N2C1=O,AC50,Cytochrome P450 3A4,25.1 µM (inconclusive)
Cc1ccc(S(=O)(=O)N(CC(=O)O)Cc2ccco2)cc1,IC50,[16],16 µM (active)
same,IC50,[17],28.4 µM (active)
COc1ccc(/C=C(\NC(=O)c2ccccc2)C(=O)OC[C@@H]2CCC[N+]3(C)CCCCC23)cc1OC (stereo partly drawn),IC50,[25],6.62 µM (active)
same,IC50,[16],2.2 µM (active)
same,IC50,[17],3.58 µM (active)
O=C(O)CS(=O)(=O)c1ccc2ccccc2c1,IC50,[1],> 100 µM (not active)
O=C(COC(=O)/C=C/c1ccco1)Nc1ncc(C(F)(F)F)cc1Cl,IC50,[25],4.77 µM (active)
same,IC50,[16],16.9 µM (active)
same,IC50,[17],29.9 µM (active)
O=[N+]([O-])c1ccc(C[n+]2cccc3ccccc32)cc1,IC50,[16],3.26 µM (active)
same,IC50,[17],5.45 µM (active)
